Test results reported in the supplement of paper PMC11208160.

Assay: recombinant barcode read abundance after kanamycin selection (control-corrected) (log10(CPM+1)); higher = more efficient recombination; sequences stand for … in AGTGCAGAGAAAATCGGCCAGTTTTCTCTGCCTGCAGTCCGCATGCCGT…ATTTATGCAGCGGACTGCCTTTCTCCCAAAGTGATAAACCGGACAGTATCATGGACCGGTTTTCCCGGTAATCCGTATTTGCAAGGTTGGTTTCACT; site = the 11-nt target
Summary of the method: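 Targets and IS621 bridge RNA target-binding loops were paired in oligos, each with a promoter, a barcode and the J23119-driven first 104 bridge RNA bases. A vector carrying the remaining 73 bp and a T7-inducible recombinase received these by Gibson cloning, and the pool was co-electroporated into E. coli with a donor plasmid. Duplicate plates contained chloramphenicol/ampicillin LB agar (control) or chloramphenicol/ampicillin/kanamycin with 0.1 mM IPTG. Recombination efficiency comes from averaged, control-corrected counts per million of recombinant-junction barcodes, reported as log10(CPM+1).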

| Sequence | recombinant barcode read abundance (log10) |
| --- | --- |
| CGAGCCCTGTGGGTTCTAACCTGTTGCTGCA [CGAGCCCCTCA_LTGcore_TG_RTGcore_TG] (site CGAGCCCCTCA) (LTG core: TG, RTG core: TG) | 0.646 |
| CGCGCCCCATGGGTTCTAACCTGTTGCGGAG [CGCGCCCCTCC_LTGcore_CA_RTGcore_CT] (site CGCGCCCCTCC) (LTG core: CA, RTG core: CT) | 0.303 |
| CGCGCCCCATGGGTTCTAACCTGTTGCGGTG [CGCGCCCCTCC_LTGcore_CA_RTGcore_CA] (site CGCGCCCCTCC) (LTG core: CA, RTG core: CA) | 0.162 |
| CGCGCCCCCTGGGTTCTAACCTGTTGCGGGG [CGCGCCCCTCC_LTGcore_CC_RTGcore_CC] (site CGCGCCCCTCC) (LTG core: CC, RTG core: CC) | 0.117 |
| CGCGCCCCGTGGGTTCTAACCTGTTGCGGAG [CGCGCCCCTCC_LTGcore_CG_RTGcore_CT] (site CGCGCCCCTCC) (LTG core: CG, RTG core: CT) | 0.167 |
| CGCGCCCCGTGGGTTCTAACCTGTTGCGGCG [CGCGCCCCTCC_LTGcore_CG_RTGcore_CG] (site CGCGCCCCTCC) (LTG core: CG, RTG core: CG) | 0 |
| CGCGCCCCTTGGGTTCTAACCTGTTGCGGAA [CGCGCCCCTCC_LTGcore_CT_RTGcore_TT] (site CGCGCCCCTCC) (LTG core: CT, RTG core: TT) | 0.319 |
| CGCGCCCCTTGGGTTCTAACCTGTTGCGGCC [CGCGCCCCTCC_LTGcore_CT_RTGcore_GG] (site CGCGCCCCTCC) (LTG core: CT, RTG core: GG) | 0.215 |
| CGCGCCCCTTGGGTTCTAACCTGTTGCGGGG [CGCGCCCCTCC_LTGcore_CT_RTGcore_CC] (site CGCGCCCCTCC) (LTG core: CT, RTG core: CC) | 0.105 |
| CGCGCCCGGTGGGTTCTAACCTGTTGCGGCC [CGCGCCCCTCC_LTGcore_GG_RTGcore_GG] (site CGCGCCCCTCC) (LTG core: GG, RTG core: GG) | 0.307 |
| CGCGCCCTGTGGGTTCTAACCTGTTGCGGAG [CGCGCCCCTCC_LTGcore_TG_RTGcore_CT] (site CGCGCCCCTCC) (LTG core: TG, RTG core: CT) | 0.301 |
| CGGTCCCCTTGGGTTCTAACCTGTTGCCACC [CGGTCCCCTTG_LTGcore_CT_RTGcore_GG] (site CGGTCCCCTTG) (LTG core: CT, RTG core: GG) | 0.18 |
| CGGTCCCTATGGGTTCTAACCTGTTGCCATA [CGGTCCCCTTG_LTGcore_TA_RTGcore_TA] (site CGGTCCCCTTG) (LTG core: TA, RTG core: TA) | 0.282 |
| CGGTCCCTGTGGGTTCTAACCTGTTGCCAAG [CGGTCCCCTTG_LTGcore_TG_RTGcore_CT] (site CGGTCCCCTTG) (LTG core: TG, RTG core: CT) | 0.0242 |
| CGGTCCCTTTGGGTTCTAACCTGTTGCCAAA [CGGTCCCCTTG_LTGcore_TT_RTGcore_TT] (site CGGTCCCCTTG) (LTG core: TT, RTG core: TT) | 0.0728 |
| GAGCCCAAATGGGTTCTAACCTGTTGCCTAG [GAGCCCACTAG_LTGcore_AA_RTGcore_CT] (site GAGCCCACTAG) (LTG core: AA, RTG core: CT) | 0.0475 |
| GAGCCCACTTGGGTTCTAACCTGTTGCCTCA [GAGCCCACTAG_LTGcore_CT_RTGcore_TG] (site GAGCCCACTAG) (LTG core: CT, RTG core: TG) | 0.593 |
| GAGCCCACTTGGGTTCTAACCTGTTGCCTCG [GAGCCCACTAG_LTGcore_CT_RTGcore_CG] (site GAGCCCACTAG) (LTG core: CT, RTG core: CG) | 0.1 |
| GAGCCCACTTGGGTTCTAACCTGTTGCCTTA [GAGCCCACTAG_LTGcore_CT_RTGcore_TA] (site GAGCCCACTAG) (LTG core: CT, RTG core: TA) | 0.296 |
| GAGCCCAGATGGGTTCTAACCTGTTGCCTAG [GAGCCCACTAG_LTGcore_GA_RTGcore_CT] (site GAGCCCACTAG) (LTG core: GA, RTG core: CT) | 0.163 |
| GAGCCCAGATGGGTTCTAACCTGTTGCCTTC [GAGCCCACTAG_LTGcore_GA_RTGcore_GA] (site GAGCCCACTAG) (LTG core: GA, RTG core: GA) | 0.057 |
| GAGCCCATATGGGTTCTAACCTGTTGCCTAG [GAGCCCACTAG_LTGcore_TA_RTGcore_CT] (site GAGCCCACTAG) (LTG core: TA, RTG core: CT) | 0.101 |
| GAGCCCATGTGGGTTCTAACCTGTTGCCTAG [GAGCCCACTAG_LTGcore_TG_RTGcore_CT] (site GAGCCCACTAG) (LTG core: TG, RTG core: CT) | 0.0858 |

| Sequence | recombinant barcode read abundance (log10) |
| --- | --- |
| GAGCCCATTTGGGTTCTAACCTGTTGCCTAG [GAGCCCACTAG_LTGcore_TT_RTGcore_CT] (site GAGCCCACTAG) (LTG core: TT, RTG core: CT) | 0.0489 |
| GAGGCCTAATGGGTTCTAACCTGTTGCCAAG [GAGGCCTCTTG_LTGcore_AA_RTGcore_CT] (site GAGGCCTCTTG) (LTG core: AA, RTG core: CT) | 0.153 |
| GAGGCCTAGTGGGTTCTAACCTGTTGCCAAG [GAGGCCTCTTG_LTGcore_AG_RTGcore_CT] (site GAGGCCTCTTG) (LTG core: AG, RTG core: CT) | 0.106 |
| GAGGCCTAGTGGGTTCTAACCTGTTGCCACT [GAGGCCTCTTG_LTGcore_AG_RTGcore_AG] (site GAGGCCTCTTG) (LTG core: AG, RTG core: AG) | 0.159 |
| GAGGCCTCGTGGGTTCTAACCTGTTGCCAAG [GAGGCCTCTTG_LTGcore_CG_RTGcore_CT] (site GAGGCCTCTTG) (LTG core: CG, RTG core: CT) | 0.218 |
| GAGGCCTCTTGGGTTCTAACCTGTTGCCAAG [GAGGCCTCTTG_LTGcore_CT_RTGcore_CT] (site GAGGCCTCTTG) (LTG core: CT, RTG core: CT) | 1.82 |
| GAGGCCTCTTGGGTTCTAACCTGTTGCCACA [GAGGCCTCTTG_LTGcore_CT_RTGcore_TG] (site GAGGCCTCTTG) (LTG core: CT, RTG core: TG) | 0.453 |
| GAGGCCTCTTGGGTTCTAACCTGTTGCCACT [GAGGCCTCTTG_LTGcore_CT_RTGcore_AG] (site GAGGCCTCTTG) (LTG core: CT, RTG core: AG) | 0.379 |
| GAGGCCTCTTGGGTTCTAACCTGTTGCCAGG [GAGGCCTCTTG_LTGcore_CT_RTGcore_CC] (site GAGGCCTCTTG) (LTG core: CT, RTG core: CC) | 0.236 |
| GAGGCCTCTTGGGTTCTAACCTGTTGCCAGT [GAGGCCTCTTG_LTGcore_CT_RTGcore_AC] (site GAGGCCTCTTG) (LTG core: CT, RTG core: AC) | 0.0794 |
| GAGGCCTCTTGGGTTCTAACCTGTTGCCATA [GAGGCCTCTTG_LTGcore_CT_RTGcore_TA] (site GAGGCCTCTTG) (LTG core: CT, RTG core: TA) | 0.267 |
| GAGGCCTCTTGGGTTCTAACCTGTTGCCATC [GAGGCCTCTTG_LTGcore_CT_RTGcore_GA] (site GAGGCCTCTTG) (LTG core: CT, RTG core: GA) | 0.252 |
| GAGGCCTGTTGGGTTCTAACCTGTTGCCAAC [GAGGCCTCTTG_LTGcore_GT_RTGcore_GT] (site GAGGCCTCTTG) (LTG core: GT, RTG core: GT) | 0.104 |
| GAGGCCTTCTGGGTTCTAACCTGTTGCCAAG [GAGGCCTCTTG_LTGcore_TC_RTGcore_CT] (site GAGGCCTCTTG) (LTG core: TC, RTG core: CT) | 0.0445 |
| GAGGCCTTCTGGGTTCTAACCTGTTGCCAGA [GAGGCCTCTTG_LTGcore_TC_RTGcore_TC] (site GAGGCCTCTTG) (LTG core: TC, RTG core: TC) | 0.104 |
| GAGGCCTTGTGGGTTCTAACCTGTTGCCACA [GAGGCCTCTTG_LTGcore_TG_RTGcore_TG] (site GAGGCCTCTTG) (LTG core: TG, RTG core: TG) | 0.014 |
| GAGGCCTTTTGGGTTCTAACCTGTTGCCAAA [GAGGCCTCTTG_LTGcore_TT_RTGcore_TT] (site GAGGCCTCTTG) (LTG core: TT, RTG core: TT) | 0.0543 |
| GAGTCCAATTGGGTTCTAACCTGTTGCGTAT [GAGTCCACTAC_LTGcore_AT_RTGcore_AT] (site GAGTCCACTAC) (LTG core: AT, RTG core: AT) | 0.0548 |
| GAGTCCACATGGGTTCTAACCTGTTGCGTTG [GAGTCCACTAC_LTGcore_CA_RTGcore_CA] (site GAGTCCACTAC) (LTG core: CA, RTG core: CA) | 0.022 |
| GAGTCCACTTGGGTTCTAACCTGTTGCGTAA [GAGTCCACTAC_LTGcore_CT_RTGcore_TT] (site GAGTCCACTAC) (LTG core: CT, RTG core: TT) | 0.027 |
| GAGTCCAGGTGGGTTCTAACCTGTTGCGTAG [GAGTCCACTAC_LTGcore_GG_RTGcore_CT] (site GAGTCCACTAC) (LTG core: GG, RTG core: CT) | 0.689 |
| GAGTCCATGTGGGTTCTAACCTGTTGCGTCA [GAGTCCACTAC_LTGcore_TG_RTGcore_TG] (site GAGTCCACTAC) (LTG core: TG, RTG core: TG) | 0.101 |
